# Patent publication US20020137929A1, “1 - (3-heterocyclylphenyl) isothiourea, -isourea, -guanidine and -amidine herbicidal agents” (Intellectual Property Department, BASF Aktiengesellschaft, priority 1998, published 2002)
# Tests used:
# [1] = system: AMBEL (Ragweed, Common); assay: Postemergence herbicidal evaluation; type: in vivo, Ambrosia artemisifolia; conditions: postemergence
# In short: (§1)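 Young plants, roughly two weeks from seeding, receive the active ingredient as a sprayed dispersion (acetone/water 50/50, 0.5% TWEEN 20) at 40 psi. Doses span about 0.0156 to 0.500 kg/ha. A visual score from 0 to 9 compares treated with control plants four to five weeks on.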
# [2] = system: CASOB (Sicklepod); assay: Postemergence herbicidal evaluation; type: in vivo, Cassia obtusifolia; conditions: postemergence
# In short: as §1
# [3] = system: GALAP (Galium); assay: Postemergence herbicidal evaluation; type: in vivo, Galium aparine; conditions: postemergence
# In short: as §1
# [4] = system: IPOHE (Morningglory, Ivyleaf); assay: Postemergence herbicidal evaluation; type: in vivo, Ipomoea hederacea; conditions: postemergence
# In short: as §1
# [5] = system: ABUTH (Velvetleaf); assay: Preemergence herbicidal evaluation; type: in vivo, Abutilon theophrasti; conditions: rated 4-5 weeks after treatment; for ABUTH rating: preemergence, 0-9 scale
# In short: (§2)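 Each species is sown separately in potting soil over roughly an inch of soil before any emergence. The soil surface then receives an aqueous acetone spray delivering about 0.0156 to 0.500 kg/ha of compound. After four to five weeks, injury is scored from 0 to 9 relative to a control.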
# [6] = system: CASOB (Sicklepod); assay: Preemergence herbicidal evaluation; type: in vivo, Cassia obtusifolia; conditions: rated 4-5 weeks after treatment; for CASOB rating: preemergence, 0-9 scale
# In short: as §2
# [7] = system: IPOHE (Morningglory, Ivyleaf); assay: Preemergence herbicidal evaluation; type: in vivo, Ipomoea hederacea; conditions: preemergence, rated 4-5 weeks after treatment, 0-9 scale
# In short: as §2
# [8] = system: ECHCG (Barnyardgrass); assay: Preemergence herbicidal evaluation; type: in vivo, Echinochloa crus-galli; conditions: rated 4-5 weeks after treatment; for ECHCG rating: preemergence, 0-9 scale
# In short: as §2
# [9] = system: GLXMAW (Soybean, Williams); assay: Preemergence herbicidal evaluation; type: in vivo, Glycine max, (L.) Merr. cv Williams; conditions: rated 4-5 weeks after treatment; for GLXMAW rating: preemergence, 0-9 scale
# In short: as §2
# [10] = system: TRZAWR (Wheat, Winter, cv Riband); assay: Preemergence herbicidal evaluation; type: in vivo, Triticum aestivum; conditions: rated 4-5 weeks after treatment; for TRZAWR rating: preemergence, 0-9 scale
# In short: as §2
# [11] = system: ZEAMX (Corn, Field); assay: Preemergence herbicidal evaluation; type: in vivo, Zea mays; conditions: rated 4-5 weeks after treatment; for ZEAMX rating: preemergence, 0-9 scale
# In short: as §2
# [12] = system: SAGPY (Arrowhead (Pygmaea)); assay: Preemergence weed control under flooded paddy conditions; type: in vivo, Sagittaria pygmaea; conditions: rated 3-4 weeks after treatment
# In short: (§3)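 First, seeds or propagules go into the top 0.5 cm of silt loam; next, water is held 1.5 to 3 cm over the soil; then compound (50/50 acetone/water) is pipetted into it at about 0.0313 to 0.500 kg/ha; finally plants are rated visually 0-9 after three to four weeks.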
# [13] = system: CYPIR (Rice Flatsedge); assay: Postemergence weed control under flooded paddy conditions; type: in vivo, Cyperus iria; conditions: postemergence weeds
# In short: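 Flood-water application, about 0.0313–0.500 kg/ha a.i. in aqueous/acetone 50/50 v/v; water depth 1.5–3 cm throughout. Weeds 3–5 cm, rice 1.5–2.5 leaf. Greenhouse; 0–9 visual rating vs control at 3–4 wk.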
# [14] = system: MOOVA (Monochoria); assay: Preemergence weed control under flooded paddy conditions; type: in vivo, Monochoria vaginalis; conditions: rated 3-4 weeks after treatment
# In short: as §3
smiles,measurement,setting,value
"CCOC(=O)CN1C(=O)C(CC(=O)OCCF)SC1=Nc1cc(-n2c(=O)cc(C(F)(F)F)n(C)c2=O)c(F)cc1Cl (stereo not shown) [Compound 82, 2-{{2-Chloro-5-[3,6-dihydro-3-methyl-2,6-dioxo-4-(trifluoromethyl)-1(2H)-pyrimidinyl]-4-fluoro-phenyl}imino}-4-oxo-3,5-thiazolidinediacetic acid, 3-ethyl 2-fluoroethyl ester]",AMBEL herbicidal rating,[1]; rate 0.0158 kg/ha,9.0
same,AMBEL herbicidal rating,[1]; rate 0.0315 kg/ha,9.0
same,AMBEL herbicidal rating,[1]; rate 0.0630 kg/ha,9.0
same,CASOB herbicidal rating,[2]; rate 0.0158 kg/ha,9.0
same,CASOB herbicidal rating,[2]; rate 0.0315 kg/ha,9.0
same,CASOB herbicidal rating,[2]; rate 0.0630 kg/ha,9.0
same,GALAP herbicidal rating,[3]; rate 0.0158 kg/ha,4.0
same,GALAP herbicidal rating,[3]; rate 0.0315 kg/ha,9.0
same,GALAP herbicidal rating,[3]; rate 0.0630 kg/ha,9.0
same,IPOHE herbicidal rating,[4]; rate 0.0158 kg/ha,9.0
same,IPOHE herbicidal rating,[4]; rate 0.0315 kg/ha,9.0
same,IPOHE herbicidal rating,[4]; rate 0.0630 kg/ha,9.0
same,ABUTH rating,[5]; 0.0156 kg/ha,3.0
same,ABUTH rating,[5]; 0.0313 kg/ha,9.0
same,ABUTH rating,[5]; 0.0625 kg/ha,9.0
same,ABUTH rating,[5]; 0.1250 kg/ha,9.0
same,ABUTH rating,[5]; 0.2500 kg/ha,9.0
same,CASOB rating,[6]; 0.0156 kg/ha,0.0
same,CASOB rating,[6]; 0.0313 kg/ha,0.0
same,CASOB rating,[6]; 0.0625 kg/ha,3.0
same,CASOB rating,[6]; 0.1250 kg/ha,9.0
same,CASOB rating,[6]; 0.2500 kg/ha,9.0
same,IPOHE rating,[7]; 0.0156 kg/ha,0.0
same,IPOHE rating,[7]; 0.0313 kg/ha,0.0
same,IPOHE rating,[7]; 0.0625 kg/ha,4.0
same,IPOHE rating,[7]; 0.1250 kg/ha,9.0
same,IPOHE rating,[7]; 0.2500 kg/ha,9.0
same,ECHCG rating,[8]; 0.0156 kg/ha,0.0
same,ECHCG rating,[8]; 0.0313 kg/ha,0.0
same,ECHCG rating,[8]; 0.0625 kg/ha,0.0
same,ECHCG rating,[8]; 0.1250 kg/ha,3.0
same,ECHCG rating,[8]; 0.2500 kg/ha,7.0
same,GLXMAW rating,[9]; 0.0156 kg/ha,0.0
same,GLXMAW rating,[9]; 0.0313 kg/ha,0.0
same,GLXMAW rating,[9]; 0.0625 kg/ha,0.0
same,GLXMAW rating,[9]; 0.1250 kg/ha,0.0
same,GLXMAW rating,[9]; 0.2500 kg/ha,5.0
same,TRZAWR rating,[10]; 0.0156 kg/ha,0.0
same,TRZAWR rating,[10]; 0.0313 kg/ha,0.0
same,TRZAWR rating,[10]; 0.0625 kg/ha,0.0
same,TRZAWR rating,[10]; 0.1250 kg/ha,0.0
same,TRZAWR rating,[10]; 0.2500 kg/ha,0.0
same,ZEAMX rating,[11]; 0.0156 kg/ha,0.0
same,ZEAMX rating,[11]; 0.0313 kg/ha,0.0
same,ZEAMX rating,[11]; 0.0625 kg/ha,0.0
same,ZEAMX rating,[11]; 0.1250 kg/ha,0.0
same,ZEAMX rating,[11]; 0.2500 kg/ha,3.0
same,SAGPY herbicidal effect rating,[12]; 0.0313 kg/ha,4.0
same,SAGPY herbicidal effect rating,[12]; 0.0625 kg/ha,4.0
same,SAGPY herbicidal effect rating,[12]; 0.1250 kg/ha,4.0
same,SAGPY herbicidal effect rating,[12]; 0.2500 kg/ha,7.0
same,Herbicidal rating CYPIR,"[13]; Rate 0.0313 kg/ha, rated 3 to 4 weeks after treatment",0.0
same,Herbicidal rating CYPIR,"[13]; Rate 0.0625 kg/ha, rated 3 to 4 weeks after treatment",0.0
same,Herbicidal rating CYPIR,"[13]; Rate 0.1250 kg/ha, rated 3 to 4 weeks after treatment",3.0
same,Herbicidal rating CYPIR,"[13]; Rate 0.2500 kg/ha, rated 3 to 4 weeks after treatment",3.0
"CN1C(=O)CSC1=Nc1cc(N2C(=O)C3=C(CCCC3)C2=O)c(F)cc1Cl [Compound 1, N-{4-chloro-2-fluoro-5-[(3-methyl-4-oxo-2-thiazolidinylidene)amino]phenyl}-1-cyclohexene-1,2-dicarboximide]",AMBEL herbicidal rating,[1]; rate 0.0157 kg/ha,2.0
same,AMBEL herbicidal rating,[1]; rate 0.0313 kg/ha,3.0
same,AMBEL herbicidal rating,[1]; rate 0.0625 kg/ha,3.0
same,AMBEL herbicidal rating,[1]; rate 0.1250 kg/ha,5.0
same,AMBEL herbicidal rating,[1]; rate 0.2500 kg/ha,7.0
same,AMBEL herbicidal rating,[1]; rate 0.5000 kg/ha,8.0
same,CASOB herbicidal rating,[2]; rate 0.0157 kg/ha,0.0
same,CASOB herbicidal rating,[2]; rate 0.0313 kg/ha,2.0
same,CASOB herbicidal rating,[2]; rate 0.0625 kg/ha,4.0
same,CASOB herbicidal rating,[2]; rate 0.1250 kg/ha,4.0
same,CASOB herbicidal rating,[2]; rate 0.2500 kg/ha,6.0
same,CASOB herbicidal rating,[2]; rate 0.5000 kg/ha,7.0
same,GALAP herbicidal rating,[3]; rate 0.0157 kg/ha,4.0
same,GALAP herbicidal rating,[3]; rate 0.0313 kg/ha,6.0
same,GALAP herbicidal rating,[3]; rate 0.0625 kg/ha,6.0
same,GALAP herbicidal rating,[3]; rate 0.1250 kg/ha,8.0
same,GALAP herbicidal rating,[3]; rate 0.2500 kg/ha,9.0
same,GALAP herbicidal rating,[3]; rate 0.5000 kg/ha,9.0
same,ABUTH preemergence herbicidal rating,[5]; rate 0.0313 kg/ha,5.0
same,ABUTH preemergence herbicidal rating,[5]; rate 0.0625 kg/ha,9.0
same,ABUTH preemergence herbicidal rating,[5]; rate 0.1250 kg/ha,9.0
same,ABUTH preemergence herbicidal rating,[5]; rate 0.2500 kg/ha,9.0
same,ABUTH preemergence herbicidal rating,[5]; rate 0.5000 kg/ha,9.0
same,CASOB preemergence herbicidal rating,[6]; rate 0.0313 kg/ha,0.0
same,CASOB preemergence herbicidal rating,[6]; rate 0.0625 kg/ha,3.0
same,CASOB preemergence herbicidal rating,[6]; rate 0.1250 kg/ha,2.0
same,CASOB preemergence herbicidal rating,[6]; rate 0.2500 kg/ha,6.0
same,CASOB preemergence herbicidal rating,[6]; rate 0.5000 kg/ha,6.7
same,ECHCG preemergence herbicidal rating,[8]; rate 0.0313 kg/ha,2.0
same,ECHCG preemergence herbicidal rating,[8]; rate 0.0625 kg/ha,5.0
same,ECHCG preemergence herbicidal rating,[8]; rate 0.1250 kg/ha,6.0
same,ECHCG preemergence herbicidal rating,[8]; rate 0.2500 kg/ha,5.0
same,ECHCG preemergence herbicidal rating,[8]; rate 0.5000 kg/ha,7.7
same,GLXMAW preemergence herbicidal rating,[9]; rate 0.0313 kg/ha,0.0
same,GLXMAW preemergence herbicidal rating,[9]; rate 0.0625 kg/ha,2.0
same,GLXMAW preemergence herbicidal rating,[9]; rate 0.1250 kg/ha,2.0
same,GLXMAW preemergence herbicidal rating,[9]; rate 0.2500 kg/ha,4.0
same,GLXMAW preemergence herbicidal rating,[9]; rate 0.5000 kg/ha,3.0
same,TRZAWR preemergence herbicidal rating,[10]; rate 0.0313 kg/ha,2.0
same,TRZAWR preemergence herbicidal rating,[10]; rate 0.0625 kg/ha,4.0
same,TRZAWR preemergence herbicidal rating,[10]; rate 0.1250 kg/ha,3.0
same,TRZAWR preemergence herbicidal rating,[10]; rate 0.2500 kg/ha,6.0
same,TRZAWR preemergence herbicidal rating,[10]; rate 0.5000 kg/ha,6.0
same,ZEAMX preemergence herbicidal rating,[11]; rate 0.0313 kg/ha,0.0
same,ZEAMX preemergence herbicidal rating,[11]; rate 0.0625 kg/ha,0.0
same,ZEAMX preemergence herbicidal rating,[11]; rate 0.1250 kg/ha,0.0
same,ZEAMX preemergence herbicidal rating,[11]; rate 0.2500 kg/ha,0.0
same,ZEAMX preemergence herbicidal rating,[11]; rate 0.5000 kg/ha,2.0
same,Herbicidal rating MOOVA,[14]; 0.0313 kg/ha,8.0
same,Herbicidal rating MOOVA,[14]; 0.0625 kg/ha,9.0
same,Herbicidal rating MOOVA,[14]; 0.1250 kg/ha,9.0
same,Herbicidal rating MOOVA,[14]; 0.2500 kg/ha,9.0
same,Herbicidal rating MOOVA,[14]; 0.5000 kg/ha,9.0
same,Herbicidal rating SAGPY,[12]; 0.0313 kg/ha,0.0
same,Herbicidal rating SAGPY,[12]; 0.0625 kg/ha,0.0
same,Herbicidal rating SAGPY,[12]; 0.1250 kg/ha,0.0
same,Herbicidal rating SAGPY,[12]; 0.2500 kg/ha,0.0
same,Herbicidal rating SAGPY,[12]; 0.5000 kg/ha,0.0
same,Herbicidal rating CYPIR,"[13]; rate 0.0313 kg/ha, 3-4 weeks after treatment",1.0
same,Herbicidal rating CYPIR,"[13]; rate 0.0625 kg/ha, 3-4 weeks after treatment",3.5
same,Herbicidal rating CYPIR,"[13]; rate 0.1250 kg/ha, 3-4 weeks after treatment",5.5
same,Herbicidal rating CYPIR,"[13]; rate 0.2500 kg/ha, 3-4 weeks after treatment",6.5
same,Herbicidal rating CYPIR,"[13]; rate 0.5000 kg/ha, 3-4 weeks after treatment",8.5
